Here are results for six molecules from patent US20110281852A1 (priority 2010, published 2011).

For data set [1] the following is noted: in vivo; cited from earlier work.
The next data set deals with C/EBPα. Description: Real-time RT-PCR, C/EBPα mRNA in 3T3-L1. It counts as cell-based, mouse. The following applies: 8 days. From the text: (§1) Realtime RT-PCR: Real-time reverse transcriptase polymerase chain reaction (RT-PCR) analysis was used to measure mRNA expression of genes SREBP-1, PPARγ, C/EBPα, low density lipoprotein receptor (LDLR), Adiponectin, and fatty acid synthase (FAS) under the control of β-actin. Briefly, total RNA was isolated from 3T3-L1 cells following treatment for 8 days with Trizol reagent (Invitrogen, Carlsbad, Calif., USA) according to the manufacturer's instruction. RNA was quantified using absorption of light at 260 nm, and sample purity was checked by OD 260 nm/280 nm. 0.8 μg of total RNA from each sample was used for reverse transcription reaction using the TaqMan Reverse Transcription Reagents (Applied Biosystems, Foster City, Calif., USA) according to the manufacturers' instructions. PCR was done using the SYBR green Master Mix (Applied Biosystems, Foster City, Calif., USA) according to the manufacturers' instructions. The temperature cycling conditions of amplification were as follows: an initial step of denaturation at 95° C. for 10 min, 40 cycles of denaturation at 95° C. for 30 s, annealing at 55° C. for 30 s, and elongation at 72° C. for 30 s. Realtime RT-PCR was performed using Mx3000P Realtime Thermocyclers (Statagene, La Jolla, Calif., USA). The relative mRNA levels of these genes were calculated by 2-delta delta CT method and normalized with control groups.

For data set [2] the following is noted: over 10 weeks of treatment; cited from earlier work.
For the next data set, the system named is SREBP-1. Briefly: Real-time RT-PCR, SREBP-1 mRNA in 3T3-L1. It counts as cell-based, mouse. To be noted: 8 days.
Description: as §1
(In general: Quantitative PCR measures a nucleic acid by following its amplification.)

Data set [3] relates to 3T3-L1 cells. Briefly: MTT assay, 3T3-L1 viability during differentiation with clozapine, risperidone, berberine (Example 2). The format is cell-based, mouse. To be noted: day 8 of differentiation. The protocol:
(§2) Cell culture and drug treatment: 3T3-L1 cells (American Type Culture Collection, Manassas, Va., USA) were cultured at 37° C. in a humidified 5% CO2 atmosphere and grown in a DMEM (Sigma-Aldrich, St. Louis, Mo. USA) supplemented with 10% Fetal Bovine Serum (FBS, Atlanta Biologicals Corp., Lawrenceville, Ga., USA), 100 units/ml penicillin and 100 μg/ml streptomycin. Differentiation was induced by addition of 167 nM insulin, 520 μM isobutylmethylxanthine (IBMX), and 1 μM dexamethasone for 2 days and then only with 167 nM insulin for 6 days. Detailed protocol was described as our previous report (Hu et al., Phytomedicine (2009) 16(9):864-873).
(§3) Medium was removed after differentiation and treatment for 8 days, MTT (Methylthiazolyldiphenyl—tetrazolium bromide 0.5 mg/ml, 50 μl/well) was added.
(In general: Tetrazolium assays rely on reduction of a dye to a coloured formazan, in cell work by metabolically active cells.)

The next data set concerns Adiponectin. Description: Real-time RT-PCR, Adiponectin mRNA in 3T3-L1. To be noted: 8 days. It counts as cell-based, mouse.
Description: as §1

For data set [4], the system named is low density lipoprotein receptor (LDLR). Briefly: Real-time RT-PCR, LDLR mRNA in 3T3-L1. The following applies: 8 days. It counts as cell-based, mouse.
Description: as §1

For data set [5], the system named is fatty acid synthase (FAS). Briefly: Real-time RT-PCR, FAS mRNA in 3T3-L1. The format is cell-based, mouse. To be noted: 50 μM risperidone, 8 days.
Description: as §1

Data set [6] has as its system 3T3-L1 cells. Description: Oil-Red-O staining and quantification, clozapine/risperidone induced adipogenesis in 3T3-L1 (Example 2). The format is cell-based, mouse. To be noted: 8 days. The protocol:
Detailed protocol was described as our previous report (Hu et al., Phytomedicine (2009) 16(9):864-873).
(§4) Oil-Red-O staining and quantification: Oil-Red-O Staining and its quantification were performed as previously reported (Liu et al., Sinica (2004) 25:1052-1057). Briefly, medium was removed and cells were washed with PBS twice, fixed with 3.7% formalin at room temperature for 30 min, then rinsed with pure water, added 60% isopropanol and incubated for 5 minutes, then moved out isopropanol and stained cells with diluted Oil-Red-O solution (Oil-Red-O store solution (3 mg/ml in pure isopropanol): water=3:2) at room temperature for 10 min. Then the diluted Oil-Red-O solution was removed and cells were washed 3 times with pure water. Images were obtained using an Olympus IX70 inverted microscope equipped for phase-contrast microscopy (Olympus, Tokyo, Japan). After staining, the cells were washed twice with 70% ethanol to remove excess stain. Stained oil droplets in the cells were dissolved in isopropanol containing 4% Nonidet-P40 (Fisher Scientific, Pittsburgh, Pa., USA) shaking in 37° C. at speed 100 rpm for 1 hour, and OD values were measured at an absorbance of 490 nm and then normalized with control group.

Data set [7] has as its system 3T3-L1 cells. Description: Oil-Red-O staining and quantification, berberine with amentoflavone in 3T3-L1 (Example 6). It counts as cell-based, mouse. The following applies: Mus musculus. The protocol:
as §4, with “reported.” for “reported (Liu et al., Sinica (2004) 25:1052-1057).”, “water.” for “water. Images were obtained using an Olympus IX70 inverted microscope equipped for phase-contrast microscopy (Olympus, Tokyo, Japan).”

Data set [8] is described as follows: MTT assay, 3T3-L1 viability during differentiation with clozapine, risperidone, berberine (Example 2). It counts as cell-based, mouse. The following applies: mouse, 3T3-L1 cells during differentiation induction; read-out: reduction of cell viability. The protocol: as §2, §3
The subject of a further data set is PPARγ. Description: Real-time RT-PCR, PPARγ mRNA in 3T3-L1. To be noted: 15 μM clozapine, 8 days. It counts as cell-based, mouse.
Description: as §1

Read-outs that look alike come from different tables or passages of the source.

With `CCCCCCCCCCC[C@@H](C[C@@H]1OC(=O)[C@H]1CCCCCC)OC(=O)[C@H](CC(C)C)NC=O` [orlistat], the “effect in antipsychotic-induced weight gain” value (“effect” for short) in [1] is listed as “no statistically significant effect”.

Consider `Cc1nc2n(c(=O)c1CCN1CCC(c3noc4cc(F)ccc34)CC1)CCCC2` [risperidone, reference compound], for which, in the data set with C/EBPα (50 μM risperidone), the “increase of C/EBPα mRNA expression vs control group” value was determined as 48.8%. For the same molecule, the weight gain in data set [2] is given as roughly 2 kg. Moreover, the “increase of SREBP-1 mRNA expression vs control group” value with SREBP-1 (50 μM risperidone) came out at 133.5%. For the same molecule, the “enhancement of cell viability” value with 3T3-L1 cells [3] (printed 'for 15 μM clozapine treatment') worked out at 14%; in the data set with 3T3-L1 cells [3] (printed 'for 30 μM clozapine treatment'), 16.8%. Moreover, the “increase of adiponectin mRNA expression vs control group” value with Adiponectin (50 μM risperidone) is 63.8%. Moreover, in [4] (50 μM risperidone), the “increase of LDLR mRNA expression vs control group” value is reported as 61.5%. Besides, in data set [5], the “increase of FAS mRNA expression vs control group” value amounted to 34.4%. Moreover, the “induced adipogenesis vs vehicle treated group” value with 3T3-L1 cells [6] (25 μM risperidone) came out at 14.1%; in the data set on 3T3-L1 cells [6] (50 μM risperidone), 26.5%.

For `O=c1cc(-c2ccc(O)c(-c3c(O)cc(O)c4c(=O)cc(-c5ccc(O)cc5)oc34)c2)oc2cc(O)cc(O)c12` [amentoflavone, reference compound], the inhibition at 25 µM with 3T3-L1 cells [7] (3T3-L1, read-out: enhancement of the inhibitory effects of berberine, 25 μM amentoflavone added to 4 μM berberine, with 15 μM clozapine) is 10.1%; with 3T3-L1 cells [7] (3T3-L1, read-out: enhancement of the inhibitory effects of berberine, 25 μM amentoflavone added to 8 μM berberine, with 15 μM clozapine) it was 7.8%.

As to `CN(C)C(=N)N=C(N)N` [metformin], the “effect” value in data set [1] is reported as “no statistically significant effect”.

On to `CN1CCN(C2=Nc3cc(Cl)ccc3Nc3ccccc32)CC1` [clozapine, reference compound], for which, in the data set with C/EBPα (15 μM clozapine), the “increase of C/EBPα mRNA expression vs control group” value came out at 45.7%. In addition, the “increase of SREBP-1 mRNA expression vs control group” value in the data set on SREBP-1 (15 μM clozapine) is 27.6%. In data set [8], the cytotoxicity at 8 days, 15 μM was determined as 6.2% and the cytotoxicity at 8 days, 30 μM worked out at 12.5%. In addition, in the data set on Adiponectin (15 μM clozapine), the “increase of adiponectin mRNA expression vs control group” value was 45.5%. In the data set on PPARγ, the “increase of PPARγ mRNA expression vs control group” value is listed as 68.3%. Besides, in data set [4] (15 μM clozapine), the “increase of LDLR mRNA expression vs control group” value came to 63.1%. Moreover, the “induced adipogenesis vs vehicle treated group” value in the data set with 3T3-L1 cells [6] (15 μM clozapine) came to 37.4%. The “induced adipogenesis vs vehicle treated group” value in the data set on 3T3-L1 cells [6] (30 μM clozapine) amounted to 25.2%.

With `CC(C)CC(N(C)C)C1(c2ccc(Cl)cc2)CCC1` (stereo not drawn) [sibutramine], in data set [1], the “effect” value was “no statistically significant effect”.
